Work on `Cc1ccc(S(=O)(=O)n2cc(C(C)O)c3ccc(C(=O)Nc4c(Cl)cncc4Cl)cc32)cc1` (stereo unspecified) yielded a melting point of 206 to 211 °C. With `Oc1ccnc2cc(Cl)c(F)cc12` the melting point was > 300 °C. With `COC(=O)c1cc(C#N)cn1CC(=O)c1ccccc1` the melting point was 169 to 172 °C. Work on `CN1CCN(C2=Nc3cc(Br)ccc3N3CCc4cccc2c43)CC1` yielded a melting point of 153 to 155 °C. In the case of `COc1cc(Cl)c(Nc2nc(C)ccc2S(=O)(=O)c2ccc(OCc3ccccc3OC)cc2)cc1F`, the melting point is reported as 62 to 64 °C. Compound `Nc1nc(-c2ccc(C(=O)N3CCN(S(=O)(=O)c4ccc5cc(Br)ccc5c4)CC3)cc2)c[nH]1` has a melting point of 274 to 275 °C. With `Cc1c(C)c2c(c(C)c1O)CC[C@@](C)(CCBr)O2` the melting point was 120 °C. Compound `CCS(=O)(=O)Nc1nc(CN2CCC(OC(c3ccccc3)c3ccccc3)CC2)cs1` has a melting point of 190 to 191 °C. Work on `O=S(=O)(Nc1cccc(CCOCc2ccc(-c3ccc(F)cc3)cc2F)c1)C(F)(F)F` yielded a melting point of 65 to 67 °C. `CCN(CC)C(=O)/C=C/C(C)Sc1nc(N)cc(Cl)n1` (stereo unspecified) showed a melting point of 152 to 153 °C. In the case of `O=C1c2c(Cl)cccc2-n2cnc(-c3nc(C4CC4)no3)c2[C@@H]2CCN12`, the melting point is reported as 140 to 142 °C. Work on `CCOC(=O)C=CN1C(C)(C)CC(OC(=O)CC(=O)OC2CC(C)(C)N(C=CC(=O)OCC)C(C)(C)C2)CC1(C)C` yielded a melting point of 100 to 102 °C. `O=C(Nc1ccc(OCCN2CCOCC2)c2ccccc12)c1cccc(N2CCOCC2)c1` gave a melting point of 90 to 92 °C. `CC(=O)OCc1cc2c(Cl)ccc(-n3c(=O)cc(C(F)(F)F)n(C)c3=O)c2o1` showed a melting point of 135 to 138 °C. In the case of `c1cc(C2OCCO2)ccc1C1OCCO1`, the melting point is reported as 86 to 89 °C. In the case of `O=S(=O)(c1ccccc1F)n1ccc2c(OCc3ccccc3)cccc21`, the melting point is reported as 117 to 120 °C. Work on `CC1NC2=NCCN2C1c1ccccc1` (stereo unspecified) yielded a melting point of 179 °C. In the case of `C=CCC1=C(O)C(C)=CC(C)(OC(C)=O)C1C` (stereo unspecified), the melting point is reported as 117 to 118 °C. `CCOC(=O)c1cc(CC)c2ccc(C(C)C)ccc1-2` showed a melting point of 48 to 49 °C. With `CC(=O)OCC1OC(n2cc(C(I)=CI)c(=O)[nH]c2=O)CC1OC(C)=O` (stereo unspecified) the melting point was 76 to 78 °C. `O=C(CC(NC(=O)Cc1ccccc1)c1ccccc1)Nc1n[nH]c(=S)s1` (stereo unspecified) gave a melting point of 249 to 250 °C. `COc1ccc(CC(=O)NCCc2ccc3[nH]cc(CC#N)c3c2)cc1` showed a melting point of 155 to 156 °C. `O=C(Nc1ccc(C(=O)N2Cc3cccn3Cc3ccccc32)cc1)c1sc2ccccc2c1Cl` gave a melting point of 220 to 222 °C. `COc1ccc2sc(C(=O)OCC(C)(C)C(O)C(C)(C)C)cc2c1` (stereo unspecified) showed a melting point of 121 to 122 °C. `NC(=O)Cc1ccccc1OCCn1ccnc1` gave a melting point of 116 to 118 °C. For `CC#CCOc1ccc(S(=O)C(C(=O)NO)c2cccc3ccccc23)cc1` (stereo unspecified), the melting point was 159 °C. Compound `[N-]=[N+]=Nc1nc(N=[N+]=[N-])nc(-c2ccccc2)n1` has a melting point of 130 to 132 °C. For `Cc1nc(N2CCC(Cc3ccc(C(F)(F)F)cc3)C2=O)sc1C(=O)NCc1ccccc1` (stereo unspecified), the melting point was 174 to 175 °C. Work on `COCCCNS(=O)(=O)NC(=O)OC/C=C/c1ccc(OCCOC)cc1Oc1ncc(C(F)(F)F)cc1Cl` yielded a melting point of 98 to 100 °C. With `NC(=O)NC(=O)c1nc(Cl)c(Cl)[nH]1` the melting point was > 290 °C. `O=C1c2ccc(Cl)cc2CC1(F)Br` (stereo unspecified) showed a melting point of 104 to 105 °C. With `Cc1oc(-c2ccc(-c3ccccc3)cc2)nc1CCOc1ccc(OC(C)(C)C(=O)O)cc1` the melting point was 123 to 124 °C. Compound `CC[C@H](C)C(OCc1ccccc1)[C@@H]1[C@H]([N+](=O)[O-])[C@H](c2ccccc2)N[C@]1(C)C(=O)NCCC(=O)O` (stereo partly specified) has a melting point of 104 to 105 °C. `O=S(=O)(c1cccs1)c1ccc(O)c(Cl)c1Cl` gave a melting point of 220 °C. `O=C1NC(=O)C(c2cn3c4c(cccc24)CCC3)C1c1ccc(O)cc1` (stereo unspecified) showed a melting point of 105 to 107 °C. For `CCCCCCC1([N+](=O)[O-])C=CC(C(=O)O)=CC1` (stereo unspecified), the melting point was 106 to 108 °C. With `CC(C)(C)NC(=O)C(C)(C)N(OC(C)(C)C#N)C(C)(C)C` the melting point was 77 to 79 °C. For `CCCCCCCCCCCCCCCCCCOc1cc(OCCCOc2cccc(N)c2)cc(C(=O)N(CC(=O)O)CC(=O)O)c1`, the melting point was 100 to 104 °C. `CCCc1n[nH]c2c(=O)[nH]c(-c3cc(S(=O)(=O)N4CCN(C)CC4)ccc3OCC)nc12` gave a melting point of 236 to 239 °C. In the case of `CC(C)(C)c1ccc(C(N)=O)cc1N`, the melting point is reported as 140 to 142 °C. `Cc1cccc(CCOc2cccc(-c3cccc(C(=O)O)c3)n2)c1` showed a melting point of 125 to 126 °C. Work on `Cn1ncnc1COc1nc2c(cc1-c1ccsc1)nnn2-c1ccccc1F` yielded a melting point of 133 to 135 °C. In the case of `O=C1OC(CCO)C(O)=C1OCc1ccccc1` (stereo unspecified), the melting point is reported as 98 to 99 °C. Compound `CN(C)C(=O)c1cccc(CN2C(=O)C3(COc4cc5c(cc43)OCCO5)c3ccccc32)c1` (stereo unspecified) has a melting point of 90 to 96 °C. `O=C(NN=C1c2cccc(F)c2SCC1c1ccc(F)cc1)Nc1ccc(C(F)(F)F)cc1` (stereo unspecified) gave a melting point of 217 to 219 °C. For `COc1cc2c(c3c1OC(C)(C)C3)C(c1cccc(NC(C)=O)c1)=NC(C)(C)C2`, the melting point was 246 to 247 °C. For `CCC12CCC3C4CCC(=O)C=C4CCC3C1C=CC2=O` (stereo unspecified), the melting point was 157 °C. `COc1ccc2cc(C(C)=O)cc(F)c2c1` showed a melting point of 96 to 97 °C. For `CCCn1nc2c(N)nc3ccccc3c2c1CCCc1ccn(Cc2ccccc2)c1`, the melting point was 138 to 140 °C. For `CCOC(=O)N1N=C(c2ccc([N+](=O)[O-])cc2)c2cc(Cl)c(Cl)cc2CC1C` (stereo unspecified), the melting point was 106 to 108 °C. For `COc1cccc(C(=O)c2cccc(Cl)c2)c1`, the melting point was 52 °C. `C1=Cc2ccccc2SS1` showed a melting point of 82 to 83 °C. Work on `CC1=CCC(=C2C(=O)C3(CS(=O)(=O)O)CCC2C3(C)C)C=C1` (stereo unspecified) yielded a melting point of 220 °C. Compound `Cc1cc(Cc2cnc(NCCCCc3ncc(Br)cc3C)[nH]c2=O)cnc1CO` has a melting point of 136 to 141 °C. Work on `O=C1NC(=Cc2ccc(Cl)cc2)C(=O)C1=NO` yielded a melting point of 190 °C. Work on `CCC12CCC3=C(CCc4cc(OC)ccc43)C1CCC2O` (stereo unspecified) yielded a melting point of 102 to 105 °C. `Cn1c(C(F)(F)F)cc(C#N)c1-c1ccc(Cl)cc1` showed a melting point of 130 °C. `O=C1OCc2c1cc1ccc(Cl)cc1c2-c1ccc(Cl)cc1` showed a melting point of 205 to 207 °C. With `CCOC(=O)c1cccc(-c2ccc3ccccc3c2)c1` the melting point was 101 to 103 °C. `CCCCCCCCCCCCCCOc1ccc(O)c(C(=O)OC)c1` showed a melting point of 49 to 53 °C. `COc1nc2cc([N+](=O)[O-])c(C)c(C(=O)NCc3ccccc3)c2nc1OC` gave a melting point of 171 to 173 °C. Work on `CCc1cccc(C(C)C)c1N1C(=O)CCN(CC)C1=S` yielded a melting point of 129 to 132 °C. `COc1ccc(N2CCN(n3cnn(C)c3=O)CC2)cc1` gave a melting point of 178 °C. For `COc1ccc(Sc2sc(S(N)(=O)=O)cc2C)cc1`, the melting point was 107 to 110 °C. In the case of `CC(=O)N1C(=O)C(C(=O)Cc2ccccc2)c2ccccc21` (stereo unspecified), the melting point is reported as 149 to 151 °C. For `Cn1cc(C2=C(c3c4n(c5ccccc35)CCC(CNC(=O)OC(C)(C)C)C4)C(=O)OC2=O)c2ccccc21` (stereo unspecified), the melting point was 124 to 126 °C. `N#Cc1ccc(-c2cccc(-c3nc4ccc(C#N)cc4[nH]3)n2)cc1` showed a melting point of 311 to 312 °C. `O=c1c(OCc2nnn[nH]2)coc2ccccc12` gave a melting point of 194 to 196 °C. In the case of `OCCCCOc1ccc2cc(Nc3ccc(O)cc3)ccc2c1`, the melting point is reported as 132 to 135 °C. In the case of `CC(C)(C)OC(=O)c1cc([N+](=O)[O-])cc([N+](=O)[O-])c1N(CCO)CCCl`, the melting point is reported as 106 to 107 °C. Work on `Cc1ccc(N(C)S(=O)(=O)c2cccs2)c2[nH]c(C(N)=O)cc12` yielded a melting point of 221 to 222 °C. `CCOC(=O)CC(=O)CCCn1cncn1` showed a melting point of 114 to 116 °C. In the case of `Cc1cnc(I)nc1Oc1cc(C(F)(F)F)nn1C`, the melting point is reported as 94 °C. In the case of `CCC(=O)Nc1ccnn1-c1c(Cl)cc(C(F)(F)F)cc1Cl`, the melting point is reported as 125 °C. Compound `CC(C)(C)OC(=O)N[C@@H]1CN(c2ccccc2)c2ccccc2NC1=O` has a melting point of 160 to 165 °C. For `N#Cc1ccc(C2NC(=O)NC2=O)c(N2CCCC2)c1` (stereo unspecified), the melting point was 154 °C. For `CN1CCC23COC(C)(C)OC2C1Cc1ccc(O)cc13` (stereo unspecified), the melting point was 237 to 238 °C. With `COc1cc(OC)c2c(c1)S(=O)(=O)NC2=O` the melting point was 258 °C. For `CCOC(=O)c1ccc2cccc([N+](=O)[O-])c2c1`, the melting point was 120 °C. With `O=c1nc(N2CCC(O)CC2)sc2ncccc12` the melting point was 206 to 207 °C. Work on `CC1(c2ccc(C3(O)CCCCCC3)cc2)OCCO1` yielded a melting point of 77 to 79 °C. For `CC12CCC(=O)C=C1CCC1C2CCC2(C)C(C(=O)NC3C4CC5CC(C4)CC3C5)CCC12` (stereo unspecified), the melting point was 244 to 246 °C. For `N#Cc1cc2nc(O)c(O)nc2cc1C(F)(F)F`, the melting point was > 300 °C. For `Oc1ccc(CCNCC(O)c2ccccn2)cc1` (racemic), the melting point was 112 to 114 °C. In the case of `CCOC(=O)/C=C/c1ccc(OCCOC)cc1Oc1ncc(C(F)(F)F)cc1Cl`, the melting point is reported as 78.2 to 78.5 °C. Compound `CC1CCN(C(=O)NCCc2ccc(S(=O)(=O)NC(=O)NC3CCC(C)C3)cc2)C(=O)C1` (stereo unspecified) has a melting point of 145 to 147 °C. For `Cc1ccc(-c2[nH]c(-c3ccc(C(F)(F)F)cc3)nc2C(=O)Nc2nccs2)s1`, the melting point was 235 to 237 °C. Compound `CCCn1c(-c2ccc(I)cc2)nc2cc(C#N)c(C#N)cc21` has a melting point of 208 to 209 °C. With `CCOC(=O)c1sc2c(Br)cccc2c1C` the melting point was 67 to 70 °C. Work on `CCOC(=O)c1cc2c(CC)nc(CC)cc2n(Cc2ccc(-c3ccccc3-c3nnn(C(c4ccccc4)(c4ccccc4)c4ccccc4)n3)cc2)c1=O` yielded a melting point of 110 to 112 °C. For `CCCN1CCCC2c3nc(N)sc3CCC21` (stereo unspecified), the melting point was 163 to 181 °C. Compound `C=C(C)CN1C(=O)c2cscc2Nc2ccccc21` has a melting point of 161 to 163 °C. Work on `CC(C)(C)NC(=O)c1nc(Cl)c(Cl)[nH]1` yielded a melting point of 218 °C. With `CC(=O)N1CCC(c2nn(-c3ccc(C(F)(F)F)cc3)c3ccccc23)CC1` the melting point was 148 to 150 °C. With `O=C(CCC1CCNCC1)c1ccc2c(c1)NCCCC2` the melting point was 104 to 107 °C. `CCc1ccc(C2CCCN2S(=O)(=O)c2ccc(Cl)cc2)cc1` (racemic) gave a melting point of 94 °C. In the case of `O=C(CNC(=O)C(Cc1ccccc1)NC(=O)C1CCCN1)Oc1c(Cl)c(Cl)c(Cl)c(Cl)c1Cl` (stereo unspecified), the melting point is reported as 182 to 184 °C. `O=C(Nc1ccc(Oc2ccccc2)cc1)N1CCN(c2ncnc3ccccc23)CC1` gave a melting point of 74 to 75 °C. In the case of `Cc1nnc2n1-c1ccc(Cl)cc1C(N1CCCC1)=NC2`, the melting point is reported as 222 to 225 °C. `COc1ccc(OC)c2c1COC2O` (stereo unspecified) gave a melting point of 156 to 158 °C. With `Cc1nc(-c2cccc(OC(C)C)c2)sc1C(=O)O` the melting point was 177 to 179 °C.
